Source: patent US8642626B2, “Ethinyl-pyrazole derivative” (Taisho Pharmaceutical Co., Ltd., priority 2010, dated 2014)

The compounds below were run against T1, rat metabotropic glutamate receptor (mGlu2) (Rattus norvegicus, UniProt P31421) (assay: [35S]GTPγS binding test (1), crude membrane fraction of CHO cells stably expressing rat mGlu2). Conditions: inhibition of glutamic acid (20 μM)-stimulated specific [35S]GTPγS binding, rat mGlu2 CHO membranes.
T1 construct: expressed in transfected cells
T1 sequence (P31421 19-872): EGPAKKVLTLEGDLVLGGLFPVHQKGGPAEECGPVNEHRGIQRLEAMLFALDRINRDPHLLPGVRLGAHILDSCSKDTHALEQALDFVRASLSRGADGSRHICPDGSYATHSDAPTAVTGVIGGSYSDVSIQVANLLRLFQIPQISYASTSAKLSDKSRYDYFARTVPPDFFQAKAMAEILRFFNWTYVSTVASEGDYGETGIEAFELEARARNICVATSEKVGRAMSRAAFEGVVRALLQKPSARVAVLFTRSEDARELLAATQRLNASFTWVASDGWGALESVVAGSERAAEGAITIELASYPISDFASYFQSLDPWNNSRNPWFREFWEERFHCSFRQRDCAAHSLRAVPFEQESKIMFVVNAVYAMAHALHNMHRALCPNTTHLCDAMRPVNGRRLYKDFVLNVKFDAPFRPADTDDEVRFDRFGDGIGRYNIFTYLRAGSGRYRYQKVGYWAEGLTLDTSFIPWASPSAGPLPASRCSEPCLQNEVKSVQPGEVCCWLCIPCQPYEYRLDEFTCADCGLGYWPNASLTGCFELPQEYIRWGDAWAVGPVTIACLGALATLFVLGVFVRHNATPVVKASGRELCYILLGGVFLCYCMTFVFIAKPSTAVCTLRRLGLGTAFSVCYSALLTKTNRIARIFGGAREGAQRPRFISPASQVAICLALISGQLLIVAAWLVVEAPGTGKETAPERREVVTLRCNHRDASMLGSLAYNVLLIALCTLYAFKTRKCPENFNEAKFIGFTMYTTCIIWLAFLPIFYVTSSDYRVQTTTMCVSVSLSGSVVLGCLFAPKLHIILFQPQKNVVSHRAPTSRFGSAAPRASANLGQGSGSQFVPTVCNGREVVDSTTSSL
Type: biochemical
Procedure: [^35S]GTPγS Binding Test (1)
(Preparation of Crude Membrane Fraction of CHO Cells Stably Expressing the Rat Metabotropic Glutamate Receptor (mGlu2))
(§1) CHO cells stably expressing the rat mGlu2 were cultured in a 10% dialyzed fetal bovine serum-containing Dulbecco's Modified Eagle's Medium [1% proline, 50 units/mL penicillin, 50 μg/mL streptomycin, and 2 mM L-glutamine (to be added when used)] at 37° C. in 5% CO2. Confluent cells were washed with PBS(−) twice, and were then harvested with a cell scraper. Then, the cells were centrifuged at 4° C. at 1000 rpm for 5 minutes to collect. The obtained precipitate was suspended in a 20 mM HEPES buffer (pH 7.4), and then homogenized with a Teflon (registered trademark) homogenizer. The resultant was centrifuged at 4° C. at 48,000×g for 20 minutes to obtain a precipitate again. The obtained precipitate was washed twice by centrifugation, and was then homogenized with the above-mentioned buffer, so as to obtain a crude membrane fraction. The obtained crude membrane fraction was preserved at −80° C.
The frozen membrane fraction as prepared above was thawed when used, and it was then diluted with a binding test buffer (final concentration: 20 mM HEPES, 100 mM NaCl, 10 mM MgCl2, 8.4 μM GDP, 10 μg/mL saponin, and 0.1% BSA). The compound of the Example was added to a membrane fraction (10 μg protein/assay), and the obtained mixture was then incubated at 30° C. for 20 minutes. Thereafter, glutamic acid (final concentration: 20 μM; but it was 30 μM only in the compounds 1 and 40 of the Examples) and [^35S]GTPγS (final concentration: 0.15 nM) were added to the reaction mixture, and then incubated at 30° C. for 1 hour. After completion of the incubation, the reaction mixture was subjected to filtration over a Whatman GF/C filter that had previously been immersed in a 20 mM HEPES buffer (pH 7.4), and the filter was then washed three times with 300 μL of ice-cold 20 mM HEPES buffer (pH 7.4). A scintillation cocktail was added to the resulting filter, and membrane-bound radioactivity was then measured with a liquid scintillation counter.
The amount of [^35S]GTPγS bound in the case of carrying out the above described reaction in the absence of glutamic acid was defined as non-specific binding. The difference between such non-specific bound and the amount of [^35S]GTPγS bound in the presence of glutamic acid was defined as specific binding. Using non-linear analysis, a concentration-inhibition curve was produced. The concentration of the compound of each Example that caused 50% inhibition (IC50 value) of specific binding was determined from each concentration-inhibition curve.
Work on `Cc1nn(C)c(COc2ccc(C(F)(F)F)cc2)c1C#Cc1cccc(S(N)(=O)=O)c1` [Example 81, 3-[(1,3-dimethyl-5-{[4-(trifluoromethyl)phenoxy]methyl}-1H-pyrazol-4-yl)ethynyl]benzenesulfonamide] yielded an IC50 of 14.6 nM. Work on `Cn1ncc(C#Cc2ccc(S(N)(=O)=O)cc2)c1-c1cnn(-c2ccc(C(F)(F)F)cc2)c1` [Example 64, 4-({2-methyl-1′-[4-(trifluoromethyl)phenyl]-1′H,2H-3,4′-bipyrazol-4-yl}ethynyl)benzenesulfonamide] yielded an IC50 of 9.77 nM. `Cn1ncc(C#Cc2ccc(S(N)(=O)=O)cc2F)c1CCc1ccc(C(F)(F)F)cc1` [Example 83, 3-fluoro-4-[(1-methyl-5-{2-[4-(trifluoromethyl)phenyl]ethyl}-1H-pyrazol-4-yl)ethynyl]benzenesulfonamide] showed an IC50 of 22 nM. Compound `Cn1ncc(C#Cc2cccc(S(N)(=O)=O)c2)c1-c1cc(-c2ccc(C(F)(F)F)cc2)no1` [Example 87, 3-[(1-methyl-5-{3-[4-(trifluoromethyl)phenyl]-1,2-oxazol-5-yl}-1H-pyrazol-4-yl)ethynyl]benzenesulfonamide] has an IC50 of 3.43 nM. Work on `Cn1ncc(C#Cc2cccc(S(N)(=O)=O)c2)c1CCOc1ccc(C(F)(F)F)cc1` [Example 106, 3-[(1-methyl-5-{2-[4-(trifluoromethyl)phenoxy]ethyl}-1H-pyrazol-4-yl)ethynyl]benzenesulfonamide] yielded an IC50 of 7.88 nM. With `Cn1ncc(C#Cc2cccc(S(N)(=O)=O)c2)c1COc1ccc(C#N)cc1` [Example 100, 3-({5-[(4-cyanophenoxy)methyl]-1-methyl-1H-pyrazol-4-yl}ethynyl)benzenesulfonamide] the IC50 was 61.8 nM. For `Cn1ncc(C#Cc2cccc(S(N)(=O)=O)c2)c1OCc1ccc(C(F)(F)F)cc1` [Example 89, 3-[(1-methyl-5-{[4-(trifluoromethyl)benzyl]oxy}-1H-pyrazol-4-yl)ethynyl]benzenesulfonamide], the IC50 was 55.1 nM. `Cn1ncc(C#Cc2ccc(S(N)(=O)=O)cc2)c1N1Cc2ccc(Cl)cc2C1` [Example 58, 4-{[5-(5-chloro-1,3-dihydro-2H-isoindol-2-yl)-1-methyl-1H-pyrazol-4-yl]ethynyl}benzenesulfonamide] was tested, and the IC50 was 13.8 nM. With `Cn1ncc(C#Cc2ccc(S(N)(=O)=O)cc2)c1-c1nc(-c2ccc(C(F)(F)F)cc2)no1` [Example 73, 4-[(1-methyl-5-{3-[4-(trifluoromethyl)phenyl]-1,2,4-oxadiazol-5-yl}-1H-pyrazol-4-yl)ethynyl]benzenesulfonamide] the IC50 was 2.1 nM. For `Cn1ncc(C#Cc2cccc(S(N)(=O)=O)c2)c1COc1ccc(C(F)(F)F)cc1` [Example 84, 3-[(1-methyl-5-{[4-(trifluoromethyl)phenoxy]methyl}-1H-pyrazol-4-yl)ethynyl]benzenesulfonamide], the IC50 was 2.72 nM. `Cn1ncc(C#Cc2ccc(S(N)(=O)=O)cc2)c1-c1ccc(C(F)(F)F)cn1` [Example 50, 4-({1-methyl-5-[5-(trifluoromethyl)pyridin-2-yl]-1H-pyrazol-4-yl}ethynyl)benzenesulfonamide] gave an IC50 of 76.4 nM. Work on `Cn1ncc(C#Cc2cccc(S(N)(=O)=O)c2)c1CCc1cccc(C(F)(F)F)c1` [Example 94, 3-[(1-methyl-5-{2-[3-(trifluoromethyl)phenyl]ethyl}-1H-pyrazol-4-yl)ethynyl]benzenesulfonamide] yielded an IC50 of 18.2 nM. In the case of `Cn1ncc(C#Cc2cccc(S(N)(=O)=O)c2)c1CNc1ccc(C(F)(F)F)cc1` [Example 98], the IC50 is reported as 42.8 nM.

Same assay, conditions: inhibition of glutamic acid (30 μM, only compounds 1 and 40)-stimulated specific [35S]GTPγS binding, rat mGlu2 CHO membranes
`CN(C)CCNS(=O)(=O)c1cccc(C#Cc2cnn(C)c2-c2ccc(C(F)(F)F)cc2)c1` [Example 1, N-[2-(dimethylamino)ethyl]-3-({1-methyl-5-[4-(trifluoromethyl)phenyl]-1H-pyrazol-4-yl}ethynyl)benzenesulfonamide] gave an IC50 of 158 nM. `Cn1ncc(C#Cc2cccc(S(N)(=O)=O)c2)c1N1Cc2cc3ccccc3cc2C1` [Example 40, 3-{[5-(1,3-dihydro-2H-benzo[f]isoindol-2-yl)-1-methyl-1H-pyrazol-4-yl]ethynyl}benzenesulfonamide] gave an IC50 of 24.2 nM.

The compounds below were run against T2, human metabotropic glutamate receptor (mGlu2) (Homo sapiens, UniProt Q14416) (assay: [35S]GTPγS binding test (2), crude membrane fraction of CHO cells stably expressing human mGlu2). Conditions: inhibition of glutamic acid (20 μM)-stimulated specific [35S]GTPγS binding, human mGlu2 CHO membranes.
T2 construct: expressed in transfected cells
T2 sequence (Q14416 19-872): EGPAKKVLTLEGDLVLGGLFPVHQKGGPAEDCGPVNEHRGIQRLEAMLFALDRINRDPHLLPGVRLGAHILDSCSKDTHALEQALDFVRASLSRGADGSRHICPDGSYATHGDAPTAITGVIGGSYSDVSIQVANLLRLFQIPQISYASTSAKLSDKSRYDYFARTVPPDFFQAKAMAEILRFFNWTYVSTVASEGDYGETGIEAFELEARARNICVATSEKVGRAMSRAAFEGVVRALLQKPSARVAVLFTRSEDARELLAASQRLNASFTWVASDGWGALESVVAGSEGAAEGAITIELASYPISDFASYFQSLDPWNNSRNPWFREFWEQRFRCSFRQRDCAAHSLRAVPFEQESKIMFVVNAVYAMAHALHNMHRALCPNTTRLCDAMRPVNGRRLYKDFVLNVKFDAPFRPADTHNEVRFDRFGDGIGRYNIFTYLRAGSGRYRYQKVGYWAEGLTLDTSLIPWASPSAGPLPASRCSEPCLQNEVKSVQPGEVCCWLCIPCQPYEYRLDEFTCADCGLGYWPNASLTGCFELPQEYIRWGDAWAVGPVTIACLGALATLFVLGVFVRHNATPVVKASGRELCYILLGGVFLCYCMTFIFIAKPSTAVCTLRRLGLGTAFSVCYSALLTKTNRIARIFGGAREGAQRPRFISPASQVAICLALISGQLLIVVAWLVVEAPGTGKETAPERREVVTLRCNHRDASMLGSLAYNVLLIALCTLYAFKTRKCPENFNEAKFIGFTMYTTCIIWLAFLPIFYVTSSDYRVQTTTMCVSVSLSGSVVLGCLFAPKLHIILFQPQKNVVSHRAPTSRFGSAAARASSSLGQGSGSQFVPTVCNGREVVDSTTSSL
Type: biochemical
Procedure: [^35S]GTPγS Binding Test (2)
(Preparation of Crude Membrane Fraction of CHO Cells Stably Expressing the Human Metabotropic Glutamate Receptor (mGlu2))
as §1, with “human” for “rat”, “mGlu2 receptor” for “mGlu2”, “streptomycin, 400 μg/mL hygromycin B,” for “streptomycin,”, “The obtained crude membrane fraction was preserved at −80° C.” left out
The frozen membrane fraction as prepared above was thawed when used, and it was then diluted with a binding test buffer (final concentration: 20 mM HEPES, 100 mM NaCl, 10 mM MgCl2, 8.4 μM GDP, 10 μg/mL saponin, and 0.1% BSA). […] A scintillation cocktail was added to the resulting filter, and membrane-bound radioactivity was then measured with a liquid scintillation counter. […]
For `Cn1ncc(C#Cc2ccc(S(N)(=O)=O)cc2)c1COc1ccc(C(F)(F)F)cn1` [Example 109, 4-{[1-methyl-5-({[5-(trifluoromethyl)pyridin-2-yl]oxy}methyl)-1H-pyrazol-4-yl]ethynyl}benzenesulfonamide], the IC50 was 1.22 nM. `Cn1ncc(C#Cc2ccc(S(N)(=O)=O)cc2)c1COc1ccc(F)cn1` [Example 108, 4-[(5-{[(5-fluoropyridin-2-yl)oxy]methyl}-1-methyl-1H-pyrazol-4-yl)ethynyl]benzenesulfonamide] showed an IC50 of 9.22 nM.
